From patent publication US20140303145A1, “PHARMACEUTICAL COMPOSITION COMPRISING A POORLY WATER-SOLUBLE ACTIVE INGREDIENT, A SURFACTANT AND A WATER-SOLUBLE POLYMER” (NOVARTIS AG, priority 2001, published 2014) come the findings set out here.

Some results are limits rather than exact numbers.

What all share (type): physicochemical
A short description of series [1]: Water solubility of PKC412. Here is the method: (water solubility: <0.1 mg/l), which is referred to hereinafter as PKC412.
Series [2] in a line: Dissolution behaviour of capsules (Paddle method USP XXIV, SIFmod). Conditions: based on a 25 mg dosage; 1 litre SIFmod pH 6.8; capsule test. On the procedure:
(§1) The medium used for the dissolution behaviour test is 1 litre of a surfactant-free, modified medium according to “Intestinal Fluid, Simulated, TS” from USP XXIV (SIFmod). KH2PO4 is replaced by NaH2PO4. Pancreatin is not added (pH 6.8).
The dissolution test is carried out according to the “Paddle method” of USP XXIV at 37° C. and at a stirring rate of 50 rpm with a Sotax AT6 (Sotax, Basle, Switzerland). The capsules are placed in a teflon-coated sinker (ATN, Pfaffenheim, France), in order to allow them to remain on the bottom of the dissolution container.
The average amounts of active ingredient released from each of 3 capsules of 25 mg PKC412 according to examples C1 and C2 are given in Table 7 as a percentage of the theoretical content.

Series [3] is described as follows: Dissolution behaviour of tablets (Paddle method USP XXIV, SIFmod). Conditions: based on a 25 mg dosage; 1 litre SIFmod pH 6.8; tablet test. On the procedure:
as §1
The dissolution test is carried out according to the “Paddle method” of USP XXIV at 37° C. and at a stirring rate of 50 rpm with a Sotax AT6 (Sotax, Basle, Switzerland). The tablets were added and the amounts of active ingredient released were analysed.
The average amounts of active ingredient released from each of 3 tablets of 25 mg PKC412 according to examples C4-C6 are given in Table 8 as a percentage of the theoretical content.

As for `CO[C@@H]1[C@H](N(C)C(=O)c2ccccc2)C[C@H]2O[C@]1(C)n1c3ccccc3c3c4c(c5c6ccccc6n2c5c31)C(=O)NC4` [PKC412], in series [1], the solubility was below 0.1 µg/mL. Moreover, the “comparable solubility of untreated PKC412” value in series [2] and in series [3] was < 0.4 % of the theoretical content throughout.
